Data on three molecules can be found in ChEMBL document CHEMBL1136095, “Pyrazole-O-glucosides as novel Na(+)-glucose cotransporter (SGLT) inhibitors” (2003).

The subject of assay [1] is Rattus norvegicus. Put plainly: Urinary glucose excretion in Wistar rat after intravenous administration (3 mg/kg). It counts as functional, Urine.
For assay [2], the species on record is Rattus norvegicus. Put plainly: Na+ -glucose co-transporter (SGLT) inhibitory activity against [C14]-glucose transport in BBMV's of rat kidney at compound concentration of 100 uM. It counts as functional.
The species named for assay [3] is Rattus norvegicus. Put plainly: Na+ -glucose co-transporter (SGLT) inhibitory activity against [C14]-glucose transport in BBMV's of rat kidney at compound concentration of 10 uM.
The species entered for assay [4] is Rattus norvegicus. Kind of assay: Na+ -glucose co-transporter (SGLT) inhibitory activity against [C14]-glucose transport in BBMV's of rat kidney at compound concentration of 100 uM: Not active. The format is functional.

Calls of active or inactive are those of the source. No cut-off for these calls is given here.

As usually defined, the Inhibition is the change of the read-out against control, counted positive when it falls. Higher therefore signals a strong effect. On to `CCc1ccc(Cc2c(C(F)(F)F)n[nH]c2O[C@@H]2O[C@H](C(=O)O)[C@@H](O)[C@H](O)[C@H]2O)cc1`, for which the Glucose in the assay with Rattus norvegicus [1] came out at 2.6 mg/day. The molecule also registered an Inhibition in the assay listed under Rattus norvegicus [2] of 30%.

Turning to `CCc1ccc(Cc2c(C(F)(F)F)n[nH]c2O[C@@H]2O[C@H](CO)[C@@H](O)[C@H](O)[C@H]2O)cc1`, in the assay with Rattus norvegicus [1], the Glucose came to 63 mg/day. This molecule also registered an Inhibition in the assay filed under Rattus norvegicus [3] of 84%.

`CSc1ccc(Cc2c(C(F)(F)F)n[nH]c2O)cc1`: the Glucose with Rattus norvegicus [1] was 0 mg/day. The inhibition result in the assay listed under Rattus norvegicus [4] is “inactive”.
